The values that follow come from patent US9517231B2, “Methods and pharmaceutical compositions for the treatment of symptoms of anxiety and panic using beta adrenergic receptor antagonist and muscarinic receptor antagonist combinations” (priority 2014, dated 2016).

What is called Ki is the dissociation constant of the complex between target and ligand, obtained from inhibition or displacement.

Data set [1] in a line: taste and mouth paresthesia of dose forms in humans.
For data set [2] the following is noted: oral atenolol 50-200 mg; ~10 bpm on placebo; cited from earlier work.
The conditions of data set [3]: oral atenolol 50 mg, oral scopolamine HBr 0.3 mg; baseline and during sauna heat; cited from earlier work.
The conditions of data set [4]: cited from earlier work.
For data set [5] the following is noted: healthy volunteers, CO2 inhalation; cited from earlier work.
Data set [6] concerns the target muscarinic acetylcholine receptors, all five human receptor subtypes. The settings on record: cited from earlier work.
The mark [7] stands for this setting: liquid compositions, under or on the tongue.
Setting [8] is: sublingual solid dose forms, HCl.
The mark [9] stands for this setting: oral 40 mg one hour prior to TSST.

“Also recorded” adds a separate entry of the source. Counter-ions that a name gives are not always drawn. Like-named read-outs stand apart in the source and are kept apart here.

Regarding `CC(C)NCC(O)COc1cccc2ccccc12` (stereo not drawn) [Propranolol HCl], in data set [1] (setting [7]), the mouth paresthesia entry is “produces mouth paresthesia”; the taste entry is ““acidic” and “medicine” taste”. Also, in data set [1] (setting [8]), the mouth/tongue paresthesia result was “delayed paresthesia of the tongue”; the taste result was ““acidic” and “medicine” taste”.
On to `CC(C)NCC(O)COc1ccc(CC(N)=O)cc1` (stereo not drawn) [atenolol], for which the suppresses heart rate in data set [2] was 23-24 bpm. In data set [3], the “cardiovascular effects (heart rate, blood pressure)” value was “reduced heart rate and blood pressure”. Moreover, in data set [1] (sublingual solid dose forms), the mouth/tongue paresthesia result is listed as “neither property was observed; also recorded: lacked these undesirable characteristics; also recorded: do not produce mouth paresthesia” and the taste result is “neither property was observed; also recorded: lacked these undesirable characteristics; also recorded: do not have a taste”.
Take `CC(C)NCC(O)COc1cccc2ccccc12` (stereo not drawn) [propranolol]: in data set [4] (80 mg one hour prior to TSST), the “BP or subjective stress” value is given as “did not significantly affect”, the heart rate entry is “significantly reduced” and the salivary cortisol result is on record as “increased”. In data set [4] (daily oral 80 mg), the salivary cortisol response result is “did not affect”. Also, in data set [4] (setting [9]), the “cognitive flexibility during stress” value is reported as “enhanced”, the heart rate result is reported as “significantly reduced” and the systolic blood pressure result is listed as “reduced”. Besides, in data set [5], the heart rate entry is “significantly decreased” and the psychic anxiolytic benefit result was “did not provide”. In addition, in data set [1] (sublingual solid dose forms), the mouth/tongue paresthesia entry is reported as “Paresthesia” and the taste result was “undesirable taste”.
`CN1[C@@H]2C[C@@H](OC(=O)[C@H](CO)c3ccccc3)C[C@H]1[C@@H]1O[C@@H]12` [scopolamine]: in data set [6], the Ki is 0.34 to 5.3 nM. Besides, in data set [3], the “cardiovascular effects (heart rate, blood pressure)” value was “essentially no effect”.
